Some results are limits rather than exact numbers.

Sequence of Human complement C1s enzyme (P09871 438-688 limits assumed): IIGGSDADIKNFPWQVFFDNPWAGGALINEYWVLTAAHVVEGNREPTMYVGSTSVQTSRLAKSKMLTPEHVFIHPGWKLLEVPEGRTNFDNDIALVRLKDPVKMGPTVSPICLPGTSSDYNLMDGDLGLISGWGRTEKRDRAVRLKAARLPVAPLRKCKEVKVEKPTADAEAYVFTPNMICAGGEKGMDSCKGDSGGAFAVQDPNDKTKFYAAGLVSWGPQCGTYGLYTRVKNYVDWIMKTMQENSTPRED
Sequence of Human complement C1s enzyme (P09871 16-437 partner limits assumed): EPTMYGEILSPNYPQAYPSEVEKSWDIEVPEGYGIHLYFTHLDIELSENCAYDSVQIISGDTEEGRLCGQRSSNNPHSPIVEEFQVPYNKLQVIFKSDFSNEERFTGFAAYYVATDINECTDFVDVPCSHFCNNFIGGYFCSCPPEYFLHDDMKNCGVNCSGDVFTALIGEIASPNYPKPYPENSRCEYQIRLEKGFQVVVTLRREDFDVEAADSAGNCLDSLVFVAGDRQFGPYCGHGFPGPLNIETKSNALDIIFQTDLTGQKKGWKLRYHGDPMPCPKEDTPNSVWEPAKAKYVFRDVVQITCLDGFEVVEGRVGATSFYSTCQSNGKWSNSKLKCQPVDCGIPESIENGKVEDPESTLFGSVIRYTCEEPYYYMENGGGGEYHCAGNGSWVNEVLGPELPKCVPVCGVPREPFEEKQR

This test addresses Human complement C1s enzyme (Homo sapiens (Human), UniProt P09871). Nature of the test: Human C1s enzyme assay. To be noted: Human C1s enzyme assay of Example 3; read-out: IC50 (Stars). The test is classed as biochemical. The procedure, abridged: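 Purified serum-derived human C1s (1.16 nM final) preincubated 5 min at room temperature with compound in 50 mM Tris, 1 M NaCl, pH 7.5. Z-L-Lys-SBzl thioester substrate and DTNB added (100 μM each, final); A405 read every 30 s for 30 min. IC50 from nonlinear regression of reaction rates against compound concentration.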
As to `C[C@@H](NC(=O)[C@@H]1C[C@]2(C)C[C@@H]2N1C(=O)CNC(=O)c1ccc2c(c1)C(F)(F)c1ccccc1-2)c1cc(C(=N)N)cs1` [Compound 121, (1S,3S,5S)—N-[(1R)-1-(4-carbamimidoylthiophen-2-yl)ethyl]-2-{2-[(9,9-difluorofluoren-2-yl)formamido]acetyl}-5-methyl-2-azabicyclo[3.1.0]hexane-3-carboxamide], the IC50 (as a rule, the concentration at which inhibition is half-maximal) was below 100 nM.

As for `Nc1ncccc1-c1csc(CNC(=O)[C@@H]2CC3(CN2C(=O)CNC(=O)c2ccc(Oc4ccc(F)cc4)cc2)OCCO3)c1` [Compound 122, (S)—N-((4-(2-aminopyridin-3-yl)thiophen-2-yl)methyl)-7-((4-(4-fluorophenoxy)benzoyl)glycyl)-1,4-dioxa-7-azaspiro[4.4]nonane-8-carboxamide], the IC50 was above 1000 nM.

In the case of `Nc1ccc(-c2csc(CNC(=O)[C@@H]3CC4(CN3C(=O)CNC(=O)c3ccc(Oc5ccc(F)cc5)cc3)OCCO4)c2)cn1` [Compound 123, (S)—N-((4-(6-aminopyridin-3-yl)thiophen-2-yl)methyl)-7-((4-(4-fluorophenoxy)benzoyl)glycyl)-1,4-dioxa-7-azaspiro[4.4]nonane-8-carboxamide], the IC50 was above 1000 nM.

Consider `O=C(NCC(=O)N1CC2(C[C@H]1C(=O)NCc1cccs1)OCCO2)c1ccc(Oc2ccc(F)cc2)cc1` [Compound 124, (S)-7-((4-(4-fluorophenoxy)benzoyl)glycyl)-N-(thiophen-2-ylmethyl)-1,4-dioxa-7-azaspiro [4.4]nonane-8-carboxamide], for which the IC50 is above 1000 nM.

For `CC(=O)ONC(=N)c1csc([C@@H](C)NC(=O)[C@@H]2CC3(CN2C(=O)CNC(=O)c2ccc4c(c2)-c2ccccc2C4(F)F)OCCO3)c1` [Compound 125, (S)—N—((R)-1-(4-(N-acetoxycarbamimidoyl)thiophen-2-yl)ethyl)-7-((9,9-difluoro-9H-fluorene-3-carbonyl)glycyl)-1,4-dioxa-7-azaspiro[4.4]nonane-8-carboxamide], the IC50 was below 100 nM.

In the case of `Cc1ccc(-c2ccc(C(=O)NCC(=O)N3CC4(C[C@H]3C(=O)N[C@H](C)c3cc(C(=N)N)cs3)OCCO4)cc2)cc1` [Compound 126, (S)—N—((R)-1-(4-carbamimidoylthiophen-2-yl)ethyl)-7-((4′-methyl-[1,1′-biphenyl]-4-carbonyl)glycyl)-1,4-dioxa-7-azaspiro[4.4]nonane-8-carboxamide], the 50% inhibitory concentration (IC50) is below 100 nM.

As to `C[C@@H](NC(=O)[C@@H]1CC2(CN1C(=O)CNC(=O)c1ccc3c(c1)-c1ccccc1C3F)OCCO2)c1cc(C(=N)N)cs1` (stereo partly drawn) [Compound 127, (8S)—N—((R)-1-(4-carbamimidoylthiophen-2-yl)ethyl)-7-((9-fluoro-9H-fluorene-3-carbonyl)glycyl)-1,4-dioxa-7-azaspiro[4.4]nonane-8-carboxamide], the IC50 is below 100 nM.

`C[C@@H](NC(=O)[C@@H]1CC2(CN1C(=O)CNC(=O)c1ccc3c(c1)-c1ccccc1C3(F)F)OCCO2)c1cc(C(=N)NO)cs1` [Compound 128, (S)-7-((9,9-difluoro-9H-fluorene-3-carbonyl)glycyl)-N—((R)-1-(4-(N-hydroxycarbamimidoyl)thiophen-2-yl)ethyl)-1,4-dioxa-7-azaspiro[4.4]nonane-8-carboxamide]: the IC50 was below 100 nM.

For the molecule `C[C@@H](NC(=O)[C@@H]1CC2(CN1C(=O)CNC(=O)c1ccc3c(c1)-c1ccccc1C3(F)F)OCCO2)c1cc(-c2cocn2)cs1` [Compound 129, (8S)-7-{2-[(9,9-difluorofluoren-3-yl)formamido]acetyl}-N-[(1R)-1-[4-(1,3-oxazol-4-yl)thiophen-2-yl]ethyl]-1,4-dioxa-7-azaspiro[4.4]nonane-8-carboxamide], the IC50 was above 1000 nM.

In the case of `C[C@@H](NC(=O)[C@@H]1CC2(CN1C(=O)CNC(=O)c1ccc3c(c1)-c1ccccc1C3(F)F)OCCO2)c1cc(-c2nnc[nH]2)cs1` [Compound 130, (S)—N—((R)-1-(4-(4H-1,2,4-triazol-3-yl)thiophen-2-yl)ethyl)-7-((9,9-difluoro-9H-fluorene-3-carbonyl)glycyl)-1,4-dioxa-7-azaspiro[4.4]nonane-8-carboxamide], the IC50 was in the range of 100 to 1000 nM.

`C[C@@H](NC(=O)[C@@H]1C[C@@H](OC(F)F)CN1C(=O)CNC(=O)c1ccc(C(F)(F)c2ccccc2)cc1)c1cc(C(=N)N)cs1` [Compound 131, (2S,4R)—N—((R)-1-(4-carbamimidoylthiophen-2-yl)ethyl)-1-((4-(difluoro(phenyl)methyl)benzoyl)glycyl)-4-(difluoromethoxy)pyrrolidine-2-carboxamide]: the IC50 is below 100 nM.

With `C[C@@H](NC(=O)[C@@H]1C[C@@H](OC(F)F)CN1C(=O)CNC(=O)c1ccc2c(c1)-c1ccccc1C2(C)C)c1cc(C(=N)N)cs1` [Compound 132, (2S,4R)—N—((R)-1-(4-carbamimidoylthiophen-2-yl)ethyl)-4-(difluoromethoxy)-1-((9,9-dimethyl-9H-fluorene-3-carbonyl)glycyl)pyrrolidine-2-carboxamide], the IC50 was below 100 nM.

`C[C@@H](NC(=O)[C@@H]1C[C@](F)(COCCNC(=O)CC[C@H](NC(=O)CCCCCCCCCCCCCCCCC(=O)O)C(=O)O)CN1C(=O)CNC(=O)c1ccc2c(c1)-c1ccccc1C2(F)F)c1cc(C(=N)N)cs1` [Compound 133, 18-(((S)-4-((2-(((3R,5S)-5-(((R)-1-(4-carbamimidoylthiophen-2-yl)ethyl)carbamoyl)-1-((9,9-difluoro-9H-fluorene-3-carbonyl)glycyl)-3-fluoropyrrolidin-3-yl)methoxy)ethyl)amino)-1-carboxy-4-oxobutyl)amino)-18-oxooctadecanoic acid]: the IC50 was below 100 nM.

`CC(C)OC(=O)/N=C(/N)c1csc([C@@H](C)NC(=O)[C@@H]2CC3(CN2C(=O)CNC(=O)c2ccc4c(c2)-c2ccccc2C4(F)F)OCCO3)c1` [Compound 134, isopropyl ((E)-amino(5-((R)-1-((S)-7-((9,9-difluoro-9H-fluorene-3-carbonyl)glycyl)-1,4-dioxa-7-azaspiro[4.4]nonane-8-carboxamido)ethyl)thiophen-3-yl)methylene)carbamate]: the IC50 was below 100 nM.

For the molecule `C[C@@H](NC(=O)[C@@H]1CC2(CN1C(=O)CNC(=O)c1ccc3c(c1)-c1ccccc1C3(F)F)OCCO2)c1ccc(-c2ncc[nH]2)s1` [Compound 135, (S)—N—((R)-1-(5-(1H-imidazol-2-yl)thiophen-2-yl)ethyl)-7-((9,9-difluoro-9H-fluorene-3-carbonyl)glycyl)-1,4-dioxa-7-azaspiro[4.4]nonane-8-carboxamide], the IC50 is above 1000 nM.

As for `COC[C@@]1(F)C[C@@H](C(=O)N[C@H](C)c2cc(C(=N)N)cs2)N(C(=O)CNC(=O)c2ccc(C(F)(F)c3ccccc3)cc2)C1` [Compound 136, (2S,4R)—N—((R)-1-(4-carbamimidoylthiophen-2-yl)ethyl)-1-((4-(difluoro(phenyl)methyl)benzoyl)glycyl)-4-fluoro-4-(methoxymethyl)pyrrolidine-2-carboxamide], the IC50 was below 100 nM.

Regarding `C[C@@H](NC(=O)[C@@H]1CC2(CN1C(=O)CNC(=O)c1ccc3oc4ccccc4c3c1)OCCO2)c1cc(C(=N)N)cs1` [Compound 137, (S)—N—((R)-1-(4-carbamimidoylthiophen-2-yl)ethyl)-7-((dibenzo[b,d]furan-2-carbonyl)glycyl)-1,4-dioxa-7-azaspiro[4.4]nonane-8-carboxamide], the IC50 was below 100 nM.

Turning to `C[C@@H](NC(=O)[C@@H]1CC2(CN1C(=O)CNC(=O)c1ccc3c(c1)C(F)(F)c1ccccc1-3)OCCO2)c1cc(C(=N)N)cs1` [Compound 138, (S)—N—((R)-1-(4-carbamimidoylthiophen-2-yl)ethyl)-7-((9,9-difluoro-9H-fluorene-7-carbonyl)glycyl)-1,4-dioxa-7-azaspiro[4.4]nonane-8-carboxamide], the IC50 was below 100 nM.

On to `COC[C@@]1(F)C[C@@H](C(=O)N[C@H](C)c2cc(C(=N)N)cs2)N(C(=O)CNC(=O)c2ccc3c(c2)-c2ccccc2C3(C)C)C1` [Compound 139, (2S,4R)—N—((R)-1-(4-carbamimidoylthiophen-2-yl)ethyl)-1-((9,9-dimethyl-9H-fluorene-3-carbonyl)glycyl)-4-fluoro-4-(methoxymethyl) pyrrolidine-2-carboxamide], for which the IC50 was below 100 nM.

For `Cn1ncc2cc(-c3ccc(C(=O)NCC(=O)N4CC5(C[C@H]4C(=O)NCc4cc(C(=N)N)cs4)OCCO5)cc3)ccc21` [Compound 140, (S)—N-((4-carbamimidoylthiophen-2-yl)methyl)-7-((4-(1-methyl-1H-indazol-5-yl)benzoyl)glycyl)-1,4-dioxa-7-azaspiro[4.4]nonane-8-carboxamide], the IC50 is below 100 nM.

Turning to `N=C(N)c1csc(CNC(=O)[C@@H]2CC3(CN2C(=O)CNC(=O)c2ccc(-c4ccccc4)c(F)c2)OCCO3)c1` [Compound 141, (S)—N-((4-carbamimidoylthiophen-2-yl)methyl)-7-((2-fluoro-[1,1′-biphenyl]-4-carbonyl)glycyl)-1,4-dioxa-7-azaspiro[4.4]nonane-8-carboxamide], the IC50 is below 100 nM.

As to `O=C(NCC(=O)N1CC2(C[C@H]1C(=O)NCc1cc(NC3=NCCCN3)cs1)OCCO2)c1ccc(Oc2ccc(F)cc2)cc1` [Compound 142, (S)-7-((4-(4-fluorophenoxy)benzoyl)glycyl)-N-((4-((1,4,5,6-tetrahydropyrimidin-2-yl)amino)thiophen-2-yl)methyl)-1,4-dioxa-7-azaspiro[4.4]nonane-8-carboxamide], the IC50 is above 1000 nM.

As for `NS(=O)(=O)c1cncc(-c2csc(CNC(=O)[C@@H]3CC4(CN3C(=O)CNC(=O)c3ccc(Oc5ccc(F)cc5)cc3)OCCO4)c2)c1` [Compound 143, (S)-7-((4-(4-fluorophenoxy)benzoyl)glycyl)-N-((4-(5-sulfamoylpyridin-3-yl)thiophen-2-yl)methyl)-1,4-dioxa-7-azaspiro[4.4]nonane-8-carboxamide], the IC50 was above 1000 nM.

On to `N=C(N)c1csc(CNC(=O)[C@@H]2CC3(CN2C(=O)CNC(=O)c2ccc(-c4cc5ccccc5s4)cc2)OCCO3)c1` [Compound 145], for which the IC50 is below 100 nM.
